According to paper PMC7288168, “Synthesis and Cytotoxic Activity of Chiral Sulfonamides Based on the 2-Azabicycloalkane Skeleton” (Molecules, 2020):

Legend:
HUH7 cells = experiment: Neutral red cell viability assay, HUH7; format: cell-based, human; conditions: for IC50: Homo sapiens, Huh-7, 24 h treatment, neutral red, read-out: LD50 HUH7 (HCC)
Method: (§1) The human hepatocellular carcinoma (HCC) cell line HUH7 was purchased from ATCC (LGC standards GmbH, Wesel, Germany). The Austrian human HCC cell line AKH12 has been well characterized and was kindly provided by Prof. Bettina Grasl-Kraupp. HUH7 cells were cultured in Dulbecco’s modified Eagle’s medium (Thermo Fisher Scientific, Waltham, MA, USA) containing 10% heat-inactivated fetal bovine serum (FBS) (Sigma-Aldrich, St. Louis, MO, USA), 1% penicillin-streptomycin (10,000 U/mL) (Thermo Fisher Scientific, Waltham, MA, USA), and 1% minimum essential medium nonessential amino acids (100x) (Thermo Fisher Scientific, Waltham, MA, USA). AKH12 cells were cultured in RPMI1640 medium (Sigma-Aldrich, St. Louis, MO, USA) containing 10% heat-inactivated FBS. DAOY and D283Med (short D283) medulloblastoma (MB) cells were purchased from ATCC (LGC standards GmbH, Wesel, Germany). D425Med (short D425) and UW228-2 were provided by Thomas Ströbel from the Institute of Neurology Medical University of Vienna. The cells were cultured in Dulbecco’s modified Eagle’s medium (Sigma-Aldrich, St. Louis, MO, USA) containing 10% FBS (Sigma-Aldrich, St. Louis, MO, USA), 2% L-Glutamine (Sigma-Aldrich, St. Louis, MO, USA), and 0.2% Normocin (Sigma-Aldrich, St. Louis, MO, USA). U-251 MG (short U251) glioblastoma (GBM) cell line was purchased from Sigma-Aldrich and cultured in Dulbecco’s modified Eagle’s medium (Sigma-Aldrich, St. Louis, MO, USA) containing 10% FBS (Sigma-Aldrich, St. Louis, MO, USA), 2% L-Glutamine (Sigma-Aldrich, St. Louis, MO, USA), and 0.2% Normocin (Sigma-Aldrich, St. Louis, Missouri, USA). Human umbilical vein endothelial cells (HUVECs) were provided by Brigitte Winter from the Department of Surgery Medical University of Vienna and were grown in endothelial cell growth medium-2 BulletKitTM (Lonza, Basel, Switzerland) under standard tissue culture conditions. All cells were incubated at 37 °C in a 5% CO2 atmosphere and regularly checked for mycoplasma contamination.
(§2) Cell viability was determined using a neutral red assay, as previously described. The cells were placed in 24-well plates and grown to reach 70–80% confluency prior to treatment. After treatment for 24 h, cells were incubated with neutral red at a concentration of 50 µg/mL in serum-free medium for 2 h at 37 °C. Cells were then washed 2x and incubated with 1% acetic acid in 70% ethanol. The dye concentration was measured photometrically at 562 nm. The percentage of survival was calculated considering DMSO-treated (indicated as 0 µM concentration) cells as 100% control.
(§3) LD50 was defined as the amount of a toxic agent required to eliminate 50% of the cell population. The LD50 was calculated in each experiment from the respective dose–response curve. All experiments were performed in triplicate wells.

AKH12 cells = experiment: Neutral red cell viability assay, AKH12; format: cell-based, human; conditions: for reduction of cell viability, AKH12: 50 µM, 24 h, first screening; for IC50: Homo sapiens, 24 h treatment, neutral red, read-out: LD50 AKH12 (HCC)
Method: as §1, §2, §3

DAOY cells = experiment: Neutral red cell viability assay, DAOY; format: cell-based, human; conditions: for reduction of cell viability, DAOY: 50 µM, 24 h, first screening; for IC50: Homo sapiens, Daoy, 24 h treatment, neutral red, read-out: LD50 DAOY (MB)
Method: as §1, §2, §3

UW228-2 cells = experiment: Neutral red cell viability assay, UW228-2; format: cell-based, human; conditions: for reduction of cell viability, UW228-2: 50 µM, 24 h, first screening; for IC50: Homo sapiens, UW228-2, 24 h treatment, neutral red, read-out: LD50 UW228-2 (MB)
Method: as §1, §2, §3

D283 cells = experiment: Neutral red cell viability assay, D283; format: cell-based, human; conditions: for reduction of cell viability, D283: 50 µM, 24 h, first screening; for IC50: Homo sapiens, D283, 24 h treatment, read-out: LD50 D283 (MB)
Method: as §1, §2, §3

U251 cells = experiment: Neutral red cell viability assay, U251; format: cell-based, human; conditions: for decrease of cell viability, U251: 50 µM, 24 h, first screening; for IC50: Homo sapiens, U-251, 24 h treatment, neutral red, read-out: LD50 U251 (GBM)
Method: as §1, §2, §3

HUVEC cells [1] = experiment: Neutral red cell viability assay, HUVEC (Table 1); format: cell-based; conditions: Table 1, nonmalignant primary cells, 24 h
Method: as §1, §2, §3

D425 cells = experiment: Cell viability assay (suspension cell line), MTT/CellTiter Blue, D425; format: cell-based, human; conditions: for reduction of cell viability, D425: 50 µM, 24 h, first screening; for IC50: Homo sapiens, read-out: LD50 D425 (MB); for IC50 / LD50 D425 (MB): 24 h treatment, suspension cell assay; for HUVEC/D425 LD50 Fold Change: ratio of LD50 HUVEC to LD50 D425; for D425 cell viability as compared to HUVEC cells: dose-response 24 h, Student's t-test, p ≤0.05 / p ≤0.01
Method: as §1, §3
(§4) One day before treatment, 2 × 10^4 of D425Med or HUVEC cells were seeded into 24-well plates and incubated at 37 °C in a humidified atmosphere containing 5% CO2.The cells were treated with different compounds for 24 h. A […] assay using the CellTiter Blue reagent (Promega, Fitchburg, Wisconsin, USA) was performed according to the manufacturer’s protocol. Experiments were performed in triplicate and repeated three times. The percentage of survival was calculated as the ratio using DMSO-treated (indicated as 0 µM concentration) cells as 100% control.

HUVEC cells [2] = experiment: Cell viability assay MTT/CellTiter Blue, HUVEC (Table 2); format: cell-based; conditions: Table 2, nonmalignant primary cells, 24 h, assay as for D425
Method: as §1, §3, §4

Row | Structure (SMILES) | IC50 (HUH7 cells) [µM] | reduction of cell viability, AKH12 (AKH12 cells) | IC50 (AKH12 cells) [µM] | reduction of cell viability, DAOY (DAOY cells) | IC50 (DAOY cells) [µM] | reduction of cell viability, UW228-2 (UW228-2 cells) | IC50 (UW228-2 cells) [µM] | reduction of cell viability, D283 (D283 cells) | IC50 (D283 cells) [µM] | decrease of cell viability, U251 (U251 cells) | IC50 (U251 cells) [µM] | LD50 HUVEC (HUVEC cells [1]) [µM] | reduction of cell viability, D425 (D425 cells) | IC50 (D425 cells) [µM] | HUVEC/D425 LD50 Fold Change (D425 cells) | LD50 HUVEC (HUVEC cells [2]) [µM] | D425 cell viability as compared to HUVEC cells (D425 cells) | LD50 D425 (MB) (D425 cells) [µM] | reduction of cell viability, HUH7 (HUH7 cells; 50 µM, 24 h, first screening)
1 | CC(c1ccccc1)N1C2CCC(C2)C1CNS(=O)(=O)c1ccc(-c2ccccc2)cc1 (stereo not drawn) [Compound 10a] | 13.9 ± 1.02 | reduced cell viability below LD50 | 15.5 ± 1.3 | reduced cell viability | 16 ± 1.12 | reduced cell viability | 28.8 ± 2.1 | reduced cell viability | 17.7 ± 1.09 | more than 50% | 13.5 ± 0.9 | 11.58 ± 1.11 | reduced cell viability | 16.7 ± 2.11 | 1.67 | 28 ± 1.86 |  |  | 
2 | Cc1ccc(-c2ccc(S(=O)(=O)NCC3C4CCC(C4)N3C(C)c3ccccc3)cc2)cc1 [Compound 10b, 4-(4-Tolyl)-N-((2-((S)-1-phenylethyl)-(1S,3R,4R)-2-azabicyclo[2.2.1]heptane-3-yl)benzenesulfonamide] | 21.3 ± 1.23 | reduced cell viability below LD50 | 23.7 ± 1.27 |  |  |  |  |  | 31.3 ± 1.32 | more than 50% | 20.4 ± 1.58 | 12.88 ± 2.13 |  | 16.4 ± 2.34 | 1.76 | 28.9 ± 2.97 | significantly reduced D425 cell viability as compared to HUVEC cells |  | 
3 | CC(c1ccccc1)N1C2CCC(C2)C1CNS(=O)(=O)c1ccc(-c2ccc(F)cc2)cc1 [Compound 10c, 4-(4-Fluorophenyl)-N-((2-((S)-1-phenylethyl)-(1S,3R,4R)-2-azabicyclo[2.2.1]heptane-3-yl)benzenesulfonamide] | 17.3 ± 0.98 | reduced cell viability below LD50 | 23.3 ± 2.1 | reduced cell viability | 16 ± 2.1 | reduced cell viability | 15.7 ± 1.32 | reduced cell viability | 27.2 ± 2.35 | more than 50% | 21.3 ± 1.01 | 13.8 ± 1.14 | reduced cell viability | 5.38 | 3.11 | 16.77 ± 0.71 | significantly reduced D425 cell viability as compared to HUVEC cells | 5.38 ± 0.77 | 
4 | COc1ccc(-c2ccc(S(=O)(=O)NCC3C4CCC(C4)N3C(C)c3ccccc3)cc2)cc1 [Compound 10e, 4-(4-Metoxyphenyl)-N-((2-((S)-1-phenylethyl)-(1S,3R,4R)-2-azabicyclo[2.2.1]heptane-3-yl)benzenesulfonamide] | 16.3 ± 0.69 | reduced cell viability below LD50 | 32 ± 2.21 | reduced cell viability | 15.5 ± 1.62 | reduced cell viability | 26.7 ± 1.52 | reduced cell viability | 15.6 ± 0.59 | more than 50% | 16 ± 2 | 9.58 ± 1.88 | reduced cell viability | 11 ± 0.47 | 1.05 | 11.54 ± 2.8 | significantly reduced D425 cell viability as compared to HUVEC cells |  | 
5 | CC(c1ccccc1)N1C2CCC(C2)C1CNS(=O)(=O)c1ccc(C(F)(F)F)cc1 [Compound 10f, 4-Trifluoromethyl-N-((2-((S)-1-phenylethyl)-(1S,3R,4R)-2-azabicyclo[2.2.1]heptane-3-yl)benzenesulfonamide] | 24.6 ± 1.54 | reduced cell viability below LD50 | 24.7 ± 1.98 | reduced cell viability | 15.8 ± 1.09 | reduced cell viability | 28 ± 2.09 | reduced cell viability | 18.8 ± 1.22 | more than 50% | 32.7 ± 1.32 | 17.26 ± 2.33 | reduced cell viability | 20.2 ± 0.79 | 1.14 | 23.15 ± 2.21 |  |  | 
6 | CC(c1ccccc1)N1C2CCC(C2)C1CNS(=O)(=O)c1cc(C(F)(F)F)cc(C(F)(F)F)c1 [Compound 10g, 3,5-Bis(trifluoromethyl)-N-((2-((S)-1-phenylethyl)-(1S,3R,4R)-2-azabicyclo[2.2.1]heptane-3-yl)benzenesulfonamide] | 11.7 ± 1.53 | reduced cell viability below LD50 | 10.2 ± 1.09 | reduced cell viability | 19.2 ± 1.42 | reduced cell viability | 12 ± 0.99 | reduced cell viability | 16 ± 1 | more than 50% | 11.8 ± 1.58 | 10.77 ± 0.93 | reduced cell viability | 6.61 | 2.66 | 17.62 ± 2.98 | significantly reduced D425 cell viability as compared to HUVEC cells | 6.61 ± 1.52 | 
7 | CC(c1ccccc1)N1CC(NS(=O)(=O)c2ccc(C(F)(F)F)cc2)C2CCC1C2 [Compound 11f, 4-Trifluoromethyl-N-((2-((S)-1-phenylethyl)-(1S,4S,5R)-2-azabicyclo[3.2.1]octan-4-yl)benzenesulfonamide] | 42.7 ± 1.98 |  |  | reduced cell viability | 17.3 ± 0.99 | reduced cell viability | 31.4 ± 2.12 | reduced cell viability | 29.9 ± 1.5 | more than 50% | 31.5 ± 2 | 22.28 ± 1.45 | reduced cell viability | 32 ± 1.37 | 0.98 | 31.52 ± 1.16 |  |  | more than 50%
